This experiment relates to MiaPaCa-2 cells. Briefly: MiaPaCa-2 Cell proliferation assay in 3D culture (CCK8). The format is cell-based. To be noted: Homo sapiens, MIA PaCa-2, 120 h; 3D spheroid culture, 5 days with compound, CCK8 readout. As for the experimental part: MiaPaCa-2 Cell proliferation assay in 3D culture. To evaluate cell viability, MiaPaCa-2 cells in logarithmic growth phase were seeded at optimal density and grown in as spheroids. Cells were incubated for 24 hours prior to the addition of different concentrations of the compounds. Cells were cultured with the compounds for 5 days and the cell viability was assessed using CCK8. Briefly, 2500 cells were seeded in round bottom ultra-low attachment 96 well plates (coming) in growth media supplemented with 10% FBS and incubated at 37° C. for 24 hours. The compounds were dissolved in DMSO (Sigma) to obtain 10 mM stock solution. Then the compounds were serially diluted in 3-fold to ten concentrations; 5 μL of the dilution above was transferred to 95 uL culture media to obtain the 50× compound stock solution; 4 uL of the 50× compound above was then transferred to the wells containing cells with 196 μL of the culture medium to obtain the final 1× concentration. The final concentration of DMSO was 0.1%. Spheroid cells were incubated in compounds for 5 days. Then 20 μL WST-8 solution (DOJINDO, Cell Counting KIT-8) was added to each well. The plates were further incubated at 37° C. for 1.5 hours, and then absorbance at 450 nm was measured using a microplate reader. Each compound was tested in triplicate and the IC50 value was calculated using GraphPad Prism.
The IC50 values of for Compounds disclosed are listed in Table 2, A: ≤500 nM; B: >500 nM and ≤5 μM; C: >5 μM and ≤50 μM; and D: >50 μM.
Take `COc1ccc(S(=O)(=O)NC(=O)Nc2cccc(Sc3cnc(N4CCC5(CC4)CO[C@@H](C)[C@H]5N)cn3)c2Cl)cn1` [Example 64, N-((3-((5-((3S,4S)-4-amino-3-methyl-2-oxa-8-azaspiro[4.5]decan-8-yl)pyrazin-2-yl)thio)-2-chlorophenyl)carbamoyl)-6-methoxypyridine-3-sulfonamide]: the IC50 is at most 500 nM. In the case of `N[C@@H]1c2ncccc2CC12CCN(c1cnc(Sc3ccnc(NC(=O)NS(=O)(=O)c4ccccc4)c3Cl)cn1)CC2` [Example 14, (S)—N-((4-((5-(7-amino-5,7-dihydrospiro[cyclopenta[b]pyridine-6,4′-piperidin]-1′-yl)pyrazin-2-yl)thio)-3-chloropyridin-2-yl)carbamoyl)benzenesulfonamide] it was 500 to 5000 nM; in that of `C[C@@H]1OCC2(CCN(c3cnc(Sc4ccnc(NC(=O)NS(C)(=O)=O)c4Cl)cn3)CC2)[C@@H]1N` [Example 77, N-((4-((5-((3S,4S)-4-amino-3-methyl-2-oxa-8-azaspiro[4.5]decan-8-yl)pyrazin-2-yl)thio)-3-chloropyridin-2-yl)carbamoyl)methanesulfonamide], at most 500 nM. In the case of `C[C@@H]1OCC2(CCN(c3cnc(Sc4cccc(NC(=O)NS(=O)(=O)c5ccncc5)c4Cl)cn3)CC2)[C@@H]1N` [Example 72, N-((3-((5-((3S,4S)-4-amino-3-methyl-2-oxa-8-azaspiro[4.5]decan-8-yl)pyrazin-2-yl)thio)-2-chlorophenyl)carbamoyl)pyridine-4-sulfonamide], the 50% inhibitory concentration (IC50) is at most 500 nM.

One may read the IC50 as the concentration that gives 50% inhibition.

For the origin of these results see patent publication US20250109118A1, “HETEROCYCLIC COMPOUNDS AS SHP2 INHIBITORS, COMPOSITIONS COMPRISING THE HETEROCYCLIC COMPOUND, AND METHODS OF USE THEREOF” (JS INNOMED HOLDINGS LTD., priority 2021, published 2025).
